Converted amounts (≈) assume the structure as drawn.
Assays:
[1] = molecular target: Tyrosine-protein kinase JAK1 (Homo sapiens, UniProt P23458); assay: Inhibition of GST-fused JAK1 (866 to 1154 residues)(unknown origin) using FITC-Ahr-KKSRGDYMTMQIG-NH2 peptide as substrate incubated for 30 mins in presence of ATP by caliper microfluidic mobility shift assay
[2] = molecular target: Tyrosine-protein kinase JAK2 (Homo sapiens, UniProt O60674); assay: Inhibition of GST-fused JAK2 (808 to 1132 residues)(unknown origin) using Carboxyfluorescein-Ahx-GGEEEEYFELVKKKK peptide as substrate incubated for 30 mins in presence of ATP by caliper microfluidic mobility shift assay
[3] = molecular target: T1, Tyrosine-protein kinase JAK3 (Homo sapiens, UniProt P52333); assay: Inhibition of GST-fused JAK3 (811 to 1124 residues)(unknown origin) using Carboxyfluorescein-Ahx-GGEEEEYFELVKKKK peptide as substrate incubated for 30 mins in presence of ATP by caliper microfluidic mobility shift assay
T1 sequence (P52333 whole entry): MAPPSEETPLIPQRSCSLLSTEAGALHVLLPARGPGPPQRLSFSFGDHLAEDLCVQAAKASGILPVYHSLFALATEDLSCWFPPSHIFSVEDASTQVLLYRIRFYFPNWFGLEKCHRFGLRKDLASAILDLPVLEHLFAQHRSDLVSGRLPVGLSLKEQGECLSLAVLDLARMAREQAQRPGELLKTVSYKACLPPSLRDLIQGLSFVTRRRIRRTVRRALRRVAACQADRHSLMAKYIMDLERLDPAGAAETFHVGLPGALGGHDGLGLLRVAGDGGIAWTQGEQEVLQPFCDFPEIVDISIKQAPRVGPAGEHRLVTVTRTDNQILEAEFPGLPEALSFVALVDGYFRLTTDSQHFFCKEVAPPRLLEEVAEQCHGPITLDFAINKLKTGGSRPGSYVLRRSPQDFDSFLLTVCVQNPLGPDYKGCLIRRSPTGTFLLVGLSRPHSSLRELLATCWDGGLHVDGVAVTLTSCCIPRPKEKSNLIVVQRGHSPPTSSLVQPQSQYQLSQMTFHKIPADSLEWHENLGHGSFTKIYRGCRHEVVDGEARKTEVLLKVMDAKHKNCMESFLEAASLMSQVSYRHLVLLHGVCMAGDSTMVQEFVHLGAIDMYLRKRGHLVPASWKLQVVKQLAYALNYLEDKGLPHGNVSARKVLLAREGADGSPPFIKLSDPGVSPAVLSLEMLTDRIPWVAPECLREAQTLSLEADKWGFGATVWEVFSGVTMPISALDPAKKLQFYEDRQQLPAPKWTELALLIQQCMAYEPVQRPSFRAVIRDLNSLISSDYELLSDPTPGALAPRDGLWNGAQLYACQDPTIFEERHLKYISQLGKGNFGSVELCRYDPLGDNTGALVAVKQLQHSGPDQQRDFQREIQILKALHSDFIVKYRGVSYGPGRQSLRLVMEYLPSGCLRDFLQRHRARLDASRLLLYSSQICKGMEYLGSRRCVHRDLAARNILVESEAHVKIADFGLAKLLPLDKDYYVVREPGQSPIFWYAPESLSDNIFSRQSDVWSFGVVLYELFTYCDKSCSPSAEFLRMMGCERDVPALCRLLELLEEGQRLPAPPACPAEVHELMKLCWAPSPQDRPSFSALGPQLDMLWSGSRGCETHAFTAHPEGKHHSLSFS

[4] = molecular target: Non-receptor tyrosine-protein kinase TYK2 (Homo sapiens, UniProt P29597); assay: Inhibition of GST-fused TYK2 (888 to 1187 residues)(unknown origin) using FITC-Ahr-KKSRGDYMTMQIG-NH2 peptide as substrate incubated for 30 mins in presence of ATP by caliper microfluidic mobility shift assay
JAK3/JAK1 [5] = molecular target: T2, JAK3/JAK1 (Homo sapiens, UniProt P23458+P52333); assay: Inhibition of JAK1/3-mediated STAT5 phosphorylation in human M07E cells preincubated for 30 mins followed by IL-15 stimulation measured after 15 mins by flow cytometry; assay type: cell-based
JAK2/JAK1 = JAK2/JAK1 (Homo sapiens, UniProt O60674+P23458); assay: Inhibition of JAK1/2-mediated STAT1 phosphorylation in human M07E cells preincubated for 30 mins followed by IFN-alpha stimulation measured after 15 mins by flow cytometry; assay type: cell-based
JAK3/JAK1 [6] = molecular target: T2, JAK3/JAK1; assay: Inhibition of JAK1/3-mediated STAT5 phosphorylation in human whole blood incubated for 30 mins followed by IL-2 addition measured after 15 mins by flow cytometry; assay type: tissue-based
[7] = Stability in human whole blood assessed as half life at 1 uM incubated upto 8 hrs by LC-MS/MS analysis; assay type: ADME, tissue-based
[8] = Metabolic stability in human skin S9 fraction measured upto 120 mins by LC-MS analysis; assay type: ADME, subcellular
[9] = Permeability of compound; assay type: ADME; conditions: not told; read-out: permeability
[10] = Lipophilicity, LogD of compound; assay type: physicochemical; conditions: octanol/water
[11] = Thermodynamic solubility of the compound at pH 6.8 using crystalline form of sample; assay type: physicochemical; conditions: read-out: Therm_solubility
[12] = Saturation solubility of compound in PEG400/transcutol/benzyl alcohol/water mixture using crystalline form of sample; assay type: physicochemical
[13] = Stability of compound under light stress assessed as compound decomposition under sunlight with intensity of 4000 KJ/m2, irradiation of 250 W/m2, wavelength of >290 nm, temperature of 37 degreeC for 4 hrs using crystalline form of sample; assay type: ADME; conditions: read-out: Drug degradation
[14] = Stability of compound under temperature stress assessed as compound degradation at 50 degreeC measured after 7 days using crystalline form of sample; assay type: physicochemical; conditions: time 7 day; read-out: Drug degradation
[15] = Stability of compound in fresh human skin explant using Franz diffusion cell model assessed as compound concentration in dermis at 3 % administered topically preincubated overnight followed by fresh media replacement in receiver fluid without compound and subsequently stimulated with IL-4/IL-13 measured after 40 hrs by LC-MS/MS analysis; assay type: ADME, tissue-based, Skin of body; conditions: topical or ocular, read-out: Ct
[16] = Drug penetration in fresh human skin explant using Franz diffusion cell model assessed as concentration of 2-(6-((5-carbamoyl-4-((2-methoxyphenyl)amino)pyridin-2-yl)amino)pyridin-3-yl)acetic acid metabolite in receiver fluid at 3 % administered topically preincubated overnight followed by fresh media replacement in receiver fluid without compound and subsequently stimulated with IL-4/IL-13 measured after 24 hrs by LC-MS/MS analysis; assay type: ADME, tissue-based, Skin of body; conditions: topical_or_ocular
[17] = Solubility of the compound at pH 6.8 using amorphous form of sample; assay type: physicochemical; conditions: buffer
[18] = Saturation solubility of compound in PEG400/transcutol/benzyl alcohol/water mixture using amorphous form of sample; assay type: physicochemical
[19] = Stability of compound under temperature stress assessed as compound degradation at 50 degreeC measured after 7 days using amorphous form of sample; assay type: physicochemical; conditions: time 7 day; read-out: Drug degradation

T2 sequence (P23458 whole entry, one chain of several): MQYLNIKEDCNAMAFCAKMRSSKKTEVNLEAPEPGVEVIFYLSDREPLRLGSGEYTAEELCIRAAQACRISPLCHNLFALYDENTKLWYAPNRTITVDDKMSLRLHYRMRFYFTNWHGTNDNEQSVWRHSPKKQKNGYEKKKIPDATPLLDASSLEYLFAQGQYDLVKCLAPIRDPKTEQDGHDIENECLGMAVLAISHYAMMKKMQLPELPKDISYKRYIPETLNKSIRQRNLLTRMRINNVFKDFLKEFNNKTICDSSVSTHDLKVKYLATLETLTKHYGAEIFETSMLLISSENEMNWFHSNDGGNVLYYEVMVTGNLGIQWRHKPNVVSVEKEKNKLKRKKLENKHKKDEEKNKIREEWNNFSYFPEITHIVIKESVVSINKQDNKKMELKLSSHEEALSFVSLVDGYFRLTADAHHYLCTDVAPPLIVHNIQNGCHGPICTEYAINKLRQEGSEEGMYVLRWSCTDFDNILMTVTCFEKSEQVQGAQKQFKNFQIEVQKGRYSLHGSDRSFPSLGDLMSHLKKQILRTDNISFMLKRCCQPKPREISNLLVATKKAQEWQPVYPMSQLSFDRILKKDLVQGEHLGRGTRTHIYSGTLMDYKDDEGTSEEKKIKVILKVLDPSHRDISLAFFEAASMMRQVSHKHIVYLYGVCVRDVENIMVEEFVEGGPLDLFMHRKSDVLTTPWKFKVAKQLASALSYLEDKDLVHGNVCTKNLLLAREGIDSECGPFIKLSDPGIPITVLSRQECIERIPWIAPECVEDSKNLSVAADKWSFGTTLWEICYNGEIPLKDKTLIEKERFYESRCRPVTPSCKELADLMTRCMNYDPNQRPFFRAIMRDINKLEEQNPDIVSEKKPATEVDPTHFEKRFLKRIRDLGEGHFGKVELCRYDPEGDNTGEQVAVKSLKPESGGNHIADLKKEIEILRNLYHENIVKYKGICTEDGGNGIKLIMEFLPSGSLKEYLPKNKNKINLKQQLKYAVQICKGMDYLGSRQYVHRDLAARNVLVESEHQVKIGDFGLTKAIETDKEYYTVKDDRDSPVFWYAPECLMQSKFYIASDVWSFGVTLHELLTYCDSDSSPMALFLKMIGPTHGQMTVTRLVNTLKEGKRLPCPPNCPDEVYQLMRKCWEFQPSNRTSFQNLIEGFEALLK
Sequence of JAK2/JAK1 (P23458 whole entry): as the sequence (P23458 whole entry, one chain of several) above
Sequence of JAK2/JAK1 (O60674 whole entry): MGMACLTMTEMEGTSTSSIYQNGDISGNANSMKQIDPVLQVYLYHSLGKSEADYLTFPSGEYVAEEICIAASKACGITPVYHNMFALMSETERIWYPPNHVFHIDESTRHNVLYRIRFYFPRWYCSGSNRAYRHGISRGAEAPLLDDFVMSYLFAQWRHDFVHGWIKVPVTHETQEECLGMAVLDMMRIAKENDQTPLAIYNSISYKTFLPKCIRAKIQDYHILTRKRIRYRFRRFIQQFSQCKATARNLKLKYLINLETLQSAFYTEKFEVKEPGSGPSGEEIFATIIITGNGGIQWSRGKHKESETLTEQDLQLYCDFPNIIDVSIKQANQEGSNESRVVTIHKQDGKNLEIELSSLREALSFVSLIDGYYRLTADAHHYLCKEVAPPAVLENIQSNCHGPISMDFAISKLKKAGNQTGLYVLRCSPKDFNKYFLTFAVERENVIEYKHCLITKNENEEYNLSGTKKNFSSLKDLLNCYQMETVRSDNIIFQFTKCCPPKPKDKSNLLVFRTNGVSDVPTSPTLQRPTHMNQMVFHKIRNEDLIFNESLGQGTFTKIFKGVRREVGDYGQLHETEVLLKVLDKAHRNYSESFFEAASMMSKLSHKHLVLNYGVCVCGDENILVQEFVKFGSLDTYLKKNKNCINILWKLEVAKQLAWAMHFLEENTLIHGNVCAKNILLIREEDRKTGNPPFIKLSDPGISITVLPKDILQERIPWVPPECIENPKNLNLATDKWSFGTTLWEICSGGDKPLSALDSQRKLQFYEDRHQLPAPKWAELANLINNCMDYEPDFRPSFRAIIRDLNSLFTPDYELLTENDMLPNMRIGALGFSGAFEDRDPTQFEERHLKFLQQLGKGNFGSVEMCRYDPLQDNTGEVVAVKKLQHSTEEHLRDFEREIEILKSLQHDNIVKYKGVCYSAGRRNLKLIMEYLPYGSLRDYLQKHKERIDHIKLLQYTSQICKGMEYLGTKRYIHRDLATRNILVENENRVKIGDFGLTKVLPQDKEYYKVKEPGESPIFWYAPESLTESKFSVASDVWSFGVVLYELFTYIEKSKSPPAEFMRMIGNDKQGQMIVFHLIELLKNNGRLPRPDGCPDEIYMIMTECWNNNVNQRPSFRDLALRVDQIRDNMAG
Sequence of Tyrosine-protein kinase JAK1 (P23458 whole entry, the tested form may be a part): as the sequence (P23458 whole entry, one chain of several) above
Sequence of Tyrosine-protein kinase JAK2 (O60674 whole entry, the tested form may be a part): as the sequence (O60674 whole entry) above
Sequence of Non-receptor tyrosine-protein kinase TYK2 (P29597 whole entry, the tested form may be a part): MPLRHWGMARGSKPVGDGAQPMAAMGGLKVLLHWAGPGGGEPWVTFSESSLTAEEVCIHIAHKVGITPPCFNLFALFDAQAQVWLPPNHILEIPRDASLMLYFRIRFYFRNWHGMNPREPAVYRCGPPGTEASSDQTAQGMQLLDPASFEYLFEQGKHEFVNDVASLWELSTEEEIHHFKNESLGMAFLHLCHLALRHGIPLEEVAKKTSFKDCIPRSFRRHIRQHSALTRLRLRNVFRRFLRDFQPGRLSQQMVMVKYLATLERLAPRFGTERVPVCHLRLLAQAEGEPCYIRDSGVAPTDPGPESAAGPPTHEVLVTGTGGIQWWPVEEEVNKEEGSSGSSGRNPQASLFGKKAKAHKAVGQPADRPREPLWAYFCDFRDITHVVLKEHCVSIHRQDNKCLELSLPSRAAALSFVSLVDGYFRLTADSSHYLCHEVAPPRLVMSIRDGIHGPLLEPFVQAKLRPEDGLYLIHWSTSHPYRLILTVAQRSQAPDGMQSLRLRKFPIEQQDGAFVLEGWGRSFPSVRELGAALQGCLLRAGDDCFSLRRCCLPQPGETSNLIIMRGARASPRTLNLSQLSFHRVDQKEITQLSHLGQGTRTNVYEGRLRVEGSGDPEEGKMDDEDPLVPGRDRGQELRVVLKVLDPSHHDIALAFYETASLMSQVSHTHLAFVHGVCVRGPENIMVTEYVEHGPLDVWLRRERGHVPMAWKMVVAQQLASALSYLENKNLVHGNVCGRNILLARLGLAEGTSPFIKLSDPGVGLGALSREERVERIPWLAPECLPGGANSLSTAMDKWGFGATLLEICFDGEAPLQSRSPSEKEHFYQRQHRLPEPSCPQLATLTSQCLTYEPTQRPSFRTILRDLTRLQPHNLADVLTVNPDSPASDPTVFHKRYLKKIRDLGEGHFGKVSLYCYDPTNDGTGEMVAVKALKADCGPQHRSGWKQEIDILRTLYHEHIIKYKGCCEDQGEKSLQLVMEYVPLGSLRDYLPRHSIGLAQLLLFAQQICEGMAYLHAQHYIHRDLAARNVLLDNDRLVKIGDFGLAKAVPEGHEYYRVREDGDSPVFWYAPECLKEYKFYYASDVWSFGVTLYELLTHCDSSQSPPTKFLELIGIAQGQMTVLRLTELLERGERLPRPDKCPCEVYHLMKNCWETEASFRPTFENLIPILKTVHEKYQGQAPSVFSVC

Structure (SMILES)	IC50 [1] [nM]	IC50 [2] [nM]	IC50 [3] [nM]	IC50 [4] [nM]	IC50 (JAK3/JAK1 [5]) [nM]	IC50 (JAK2/JAK1) [nM]	IC50 (JAK3/JAK1 [6]) [nM]	half-life at 1 µM [7] [min]	half-life [8] [min]	Papp [9] [×10⁻⁶ cm/s]	logD [10]	solubility thermodynamic [11] [µg/mL]	solubility thermodynamic [12] [µg/mL]	degraded at 4 h [13] [%]	degraded at 168 h [14] [%]	concentration at 40 h, 3 % [15] [µM]	Drug uptake [16] [µM]	solubility [17] [µg/mL]	solubility thermodynamic [18] [µg/mL]	degraded at 168 h [19] [%]
COc1ccccc1Nc1cc(Nc2ccc(CC(=O)O[C@H]3CCOC3)cn2)ncc1C(N)=O	5	5	5	2	89	44	16000	5	39	20	3	31 (≈ 66.9 µM)	> 18000	3.3	2.4	54	0.124	–	–	–
COC[C@H](C)OC(=O)Cc1ccc(Nc2cc(Nc3ccccc3OC)c(C(N)=O)cn2)nc1	1	2	1	–	115	58	> 50000	–	12	–	–	–	–	–	–	–	–	–	–	–
COc1ccccc1Nc1cc(Nc2ccc(CC(=O)O[C@@H]3CCOC3)cn2)ncc1C(N)=O	3	4	3	2	67	48	> 50000	–	8	–	–	–	–	–	–	–	–	–	–	–
CC(C)OC(=O)Cc1ccc(Nc2cc(Nc3ccccc3Cl)c(C(N)=O)cn2)nc1	29	27	28	–	71	115	1200	65	67	–	–	–	–	–	–	–	–	–	–	–
NC(=O)c1cnc(Nc2ccc(CC(=O)O)cn2)cc1Nc1ccccc1Cl	9	19	10	10	2580	3860	> 50000	> 240	< 240	0.9	0.4	–	–	–	–	–	–	–	–	–
CCOC(=O)Cc1ccc(Nc2cc(Nc3ccccc3Cl)c(C(N)=O)cn2)nc1	20	17	18	–	24	60	12200	7	14	11	4.6	–	–	–	–	–	–	0.1 (≈ 0.235 µM)	8700 (≈ 20400 µM)	1
CCOC(=O)COc1ccc(Nc2cc(Nc3ccccc3Cl)c(C(N)=O)cn2)nc1	69	76	69	54	141	185	7530	–	4	–	–	–	–	–	–	–	–	–	–	–
NC(=O)c1cnc(Nc2cccc(O)n2)cc1Nc1ccccc1Cl	–	–	–	–	–	> 10000	–	> 60	> 200	–	–	–	–	–	–	–	–	–	–	–
CCOC(=O)CCc1ccc(Nc2cc(Nc3ccccc3Cl)c(C(N)=O)cn2)nc1	27	25	25	37	171	185	2500	–	8	–	–	–	–	–	–	–	–	–	–	–
CCOC(=O)c1ccc(Nc2cc(Nc3ccccc3Cl)c(C(N)=O)cn2)nc1	120	110	170	–	189	288	10300	–	–	–	–	–	–	–	–	–	–	–	–	–
CCOC(=O)Cc1ccc(Nc2cc(Nc3ccccc3OC)c(C(N)=O)cn2)nc1	19	26	56	21	80	58	10200	5	12	28	2.9	1 (≈ 2.37 µM)	≥ 9000	0	2	–	–	–	–	–
COCCOC(=O)Cc1ccc(Nc2cc(Nc3ccccc3OC)c(C(N)=O)cn2)nc1	6	6	4	2	63	14	> 30000	–	5	–	2.9	–	–	–	–	–	–	–	–	–

— ChEMBL document CHEMBL5370660, “Design of a Supersoft Topical JAK Inhibitor, Which Is Effective in Human Skin but Rapidly Deactivated in Blood” (J Med Chem, 2023)
